Test results taken from publication PMC11020070, “Discovery of Protease-Activated Receptor 4 (PAR4)-Tethered Ligand Antagonists Using Ultralarge Virtual Screening” (ACS Pharmacology & Translational Science, 2024).

Experiments:
[1] = biological target: T1, PAR4 (Homo sapiens, UniProt Q96RI0); test: PAR4 component of α-thrombin activation (α-thrombin + vorapaxar) in human platelets; type: cell-based; design: endogenous in cells; host or cells: platelets; conditions: for IC50: α-thrombin + vorapaxar, read-out: PAR4 IC50 (Figure 6D)
T1 sequence (Q96RI0 18-385): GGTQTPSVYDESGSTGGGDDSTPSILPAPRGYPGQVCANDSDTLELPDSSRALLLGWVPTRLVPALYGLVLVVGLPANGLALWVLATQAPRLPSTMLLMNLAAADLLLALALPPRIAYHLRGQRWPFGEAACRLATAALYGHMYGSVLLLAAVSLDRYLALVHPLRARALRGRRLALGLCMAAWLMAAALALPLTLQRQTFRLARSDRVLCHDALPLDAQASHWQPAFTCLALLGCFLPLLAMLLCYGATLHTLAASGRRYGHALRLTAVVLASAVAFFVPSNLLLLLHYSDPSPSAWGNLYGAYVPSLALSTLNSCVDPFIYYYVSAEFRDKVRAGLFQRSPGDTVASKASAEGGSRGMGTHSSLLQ
Method: Figure 5 (A) Off-target controls: % of vehicle control for γ-thrombin (100 nM), PAR4 component of α-thrombin (5 nM α-thrombin +1 μM vorapaxar), PAR4 agonist peptide 200 μM AYPGKF, 200 μM PAR1 agonist peptide SFLLRN, and GPVI agonist convulxin 3.16 nM.
Figure 6 (A) Distribution of IC50 values for the inhibition of human PAR4 vs mouse PAR4. Red indicates the 2 compounds highlighted in panels (B–D). (B) Structures of exemplar compounds. (C) Concentration–response curves for human vs mouse PAR4. (D) Concentration–response curves for the inhibition of pharmacologically defined α-thrombin components for PAR1 (α-thrombin + BMS-3) vs PAR4 (α-thrombin + vorapaxar).
α-thrombin activates both PAR1 and PAR4, and the individual PAR1 or PAR4 component can be isolated pharmacologically. […] With 20 substitutions between PAR1 and PAR4 within 5 Å of the predicted 31 binding site, the basis for these selectivity differences is not known (Figure S4). As we continue to probe for a selective PAR4 antagonist, mutagenesis of individual residues will be conducted.
Compounds were screened for inhibition activity against human PAR4 using 100 nM γ-thrombin or 200 μM PAR4-AP in a single-point assay (10 μM test compound). Dose–response curves were conducted for active compounds. Active compounds were also assessed at a single concentration of 10 μM against other agonists, including the PAR4 component of α-thrombin (5 nM α-thrombin +1 μM vorapaxar), the PAR1 agonist peptide (20 μM SFFLRN), and the GPVI receptor agonist convulxin (3 nM).

[2] = Modified microsomal clearance assay with or without NADPH, mouse liver microsomes; type: in vitro ADME; conditions: for Estimated % Contribution to Metabolism Mouse CYPs/FMOs / Estimated % Contribution to Metabolism Mouse Esterases: MLM, from AUC with/without NADPH vs buffer only; for CLint scaled at 1 µM: mouse, liver microsomes, pH 7.4, MLM, reaction initiated by test compound
Method: (§1) It is of note that the experimental design for the initial round of microsomal clearance assays adds a test compound to microsomes before the reaction is started by the addition of nicotinamide adenine dinucleotide phosphate (NADPH). This design assumes that the major contributing drug-metabolizing enzymes are cytochrome P450s (CYPs). To investigate this further, the experimental design was modified where the reaction was initiated by the addition of a test compound and was carried out in the presence or absence of NADPH. […] By comparison of the measured intrinsic clearance in the presence and absence of NADPH, the contribution of non-CYP450 drug-metabolizing enzymes can be estimated.
(§2) Mammalian liver microsomes include CYPs, flavin monooxygenases (FMOs), glucuronosyltransferases ([…]), and esterases as part of their enzyme composition. In the presence of NADPH, which serves as a cofactor for CYP- and FMO-dependent reactions, the observed activity can be attributed to these enzymes. Similarly, UGTs require the cofactor uridine diphosphate glucuronic acid (UDPGA). Therefore, when NADPH and UDPGA are absent, any reduction in the compound can be ascribed only to esterase activity or chemical instability. […] This is based on two factors: (1) the stability of the compounds in HP buffer, which is used in the platelet assays, and (2) the low probability of drug metabolism occurring within the platelets themselves. Together, these minimize the chance that any metabolites with distinct PAR4 potencies could confound the results. By comparing the area under the curve of the compound metabolized from the microsomal incubations in the presence or absence of NADPH to the corresponding area under the curve of the buffer-only incubation, the percent contribution of CYPs and FMOs and esterases were estimated (Table S1). The major contributing enzyme toward the metabolism of 12 is esterases in both the human (96%) and mouse (98%). In contrast, the metabolism of 31 was primarily driven by CYPs and FMOs in both HLM (80%) and MLM (88%).
(§3) In separate 96-well plates for each time point, a mixture of 0.1 M potassium phosphate-buffered (pH 7.4), 3 mM MgCl2, and 2.5 mg/mL microsomes were prewarmed at 37 °C for 5 min. Following the preincubation, a 1 μM test compound and 1 mM NADPH (for 3, 7, 15, 25, or 45 min time points) or buffer (for 0 min time point) were added to initiate the reaction. Under standard conditions, reactions were initiated with the addition of NADPH. To delineate the contribution of esterases, some experiments were initiated by the addition of substrate in the presence or absence of NADPH. Plates were incubated at 37 °C under ambient oxygenation. At the respective times, each plate’s reaction was precipitated by the addition of 2 volumes of ice-cold acetonitrile containing an internal standard (carbamazepine, 50 nM). The plates were centrifuged at 4000 rcf (4 °C) for 5 min. The resulting supernatants were transferred and diluted 1:1 (supernatant:water) into new 96-well plates in preparation for LC/MS/MS analysis. Each compound was assayed in triplicate within the same 96-well plate. The in vitro half-life (t1/2, min, eq 1), intrinsic clearance (CLint, mL/min/kg, eq 2), and subsequent predicted hepatic clearance (CLhep, mL/min/kg, eq 3) were determined employing the following equations [drawing 1] 1 [drawing 2] 2 [drawing 3] 3 The estimated percent contribution to metabolism was calculated from the percent substrate lost plots generated from metabolic incubations initiated with the addition of a test compound. Calculations compared the area under the curve (AUC) from conditions in the presence and absence of NADPH and buffer-only (control) conditions (eqs 4 and 5). AUC was calculated by using the trapezoidal method [drawing 4] 4 [drawing 5] 5
(§4) Clint (mL/min/kg) Estimated % Contribution to Metabolism
(§5) Compound Human Mouse Human Mouse +NADPH -NADPH +NADPH -NADPH CYPs/FMOs Esterases CYPs/FMOs Esterases […]

[3] = Modified microsomal clearance assay with or without NADPH, human liver microsomes; type: in vitro ADME; conditions: for Estimated % Contribution to Metabolism Human CYPs/FMOs / Estimated % Contribution to Metabolism Human Esterases: HLM, from AUC with/without NADPH vs buffer only; for CLint scaled at 1 µM: human, liver microsomes, pH 7.4, HLM, reaction initiated by test compound
Method: as §1, §2, §3, §4, §5

IC50 [1] [µM] | Estimated % Contribution to Metabolism Mouse CYPs/FMOs [2] [%] | Estimated % Contribution to Metabolism Mouse Esterases [2] [%] | CLint scaled at 1 µM ([2]; +NADPH) [mL/min/kg] | CLint scaled at 1 µM ([2]; -NADPH) [mL/min/kg] | Estimated % Contribution to Metabolism Human CYPs/FMOs [3] [%] | Estimated % Contribution to Metabolism Human Esterases [3] [%] | CLint scaled at 1 µM ([3]; +NADPH) [mL/min/kg] | CLint scaled at 1 µM ([3]; -NADPH) [mL/min/kg] | SMILES | inhibition of PAR4 component of α-thrombin activation ([1]; 10 μM compound, 5 nM α-thrombin + 1 μM vorapaxar)
 |  |  |  |  |  |  |  |  | Cc1nc(NC(=O)c2cc(-c3ccccc3)n(-c3ccccc3)n2)n[nH]1 [Compound 7] | did inhibit
0.149 | 2 | 98 | 9820 | 6240 | 4 | 96 | 642 | 352 | Cn1nc(C(=O)Nc2n[nH]c(-c3c(F)cccc3F)n2)cc1C1CC1 [Compound 12] | 
 |  | 0 | 789 | 27.8 | 39 | 61 | 26.8 | 12.4 | O=C(Nc1nc[nH]n1)c1nn(-c2ccccc2)c2c1CCC2 [Compound 17] | 
0.163 | 88 | 12 | 10400 | 32.3 | 80 | 20 | 144 | 15.6 | O=C(Nc1n[nH]c(-c2ccc(F)cc2F)n1)c1nn(-c2ccccc2)c2c1CCCC2 [Compound 31] | 
